From patent US20230278987A1, “Antimicrobial Compounds and Methods” (Curza Global, LLC, priority 2019, published 2023)
Converted amounts (≈) assume the structure as drawn. Counter-ions that a name gives are not always drawn. Like-named read-outs stand apart in the source and are kept apart here.

Key:
S.aureus (Sa) = assay: Broth microdilution MIC against S.aureus (Sa); format: cell-based; settings: for MIC: Staphylococcus aureus, read-out: Sa + bicarb 6.25 (MIC)
Procedure: (§1) A certified BSL-2 laboratory was used for testing. Compounds were evaluated using the broth microdilution minimum inhibitory concentration (MIC) and minimum bactericidal concentration (MBC) assays defined by Clinical and Laboratory Standards Institute (CLSI) in the M26-A guideline against S.aureus (Sa), E.coli (Ec), K.pneumoniae (Kp), A.baumannii (Ab), E.faecalis (Ef) and P.aeruginosa (Pa).
(§2) MICs were determined using the Clinical Laboratory and Standards Institute (CLSI) Broth Microdilution Method with slight modification. Clinical and Laboratory Standards Institute (2012). “Methods for dilution antimicrobial susceptibility tests for bacteria that grow aerobically; approved standard, 9th ed. M07-A9. Clinical and Laboratory Standards Institute, Wayne, PA.” Serial two-fold dilutions of compounds are prepared in sterile clear roundbottom 96-well plates.
(§3) To prepare microdilution trays, two-fold dilutions of antimicrobial agent are prepared in growth medium: Cation-Adjusted Mueller-Hinton Broth (CAMHB), or CAMHB supplemented with sodium bicarbonate (6.25 or 25 mM final concentration prepared from a 1.0 M stock solution) or CAMHB supplemented with heat inactivated human serum (Fisher Cat. # BP2657100) 0-50% by adding 200 µL of the highest concentration to be tested (64 µg/mL, for example) in row A, mixing and transferring 100 µL from row A to 100 µL growth medium in row B, then repeating the mixing and transferring through row H of the 96-well plate, discarding the excess 100 µL remaining. This slight modification to the CLSI protocol enables evaluation of MICs for 3 compounds per plate in triplicate, albeit with only 8 compound dilutions (CLSI protocol enables 2 compounds in triplicate with 10 dilutions). Bacterial suspensions are added to a final concentration of 5 × 10^4 CFU/well by adding 5 µL of a 1:10 dilution of a 0.5 McFarland suspension (1 × 10^8 CFU/mL) for each bacterium evaluated. Bacterial suspensions were prepared using the growth method described by CLSI. Well-isolated colonies (3-5 from an agar plate) were selected using a sterile loop and used to inoculate a tube containing 4 mL of CAMHB. The cultures are incubated at 35 ± 2° C. until it achieves or exceeds the turbidity of the 0.5 McFarland standard, determined by measuring A600nm (usually two to six hours). When growth exceeds a 0.5 McFarland standard, the turbidity is adjusted with broth to be equivalent to a 0.5 McFarland standard.

E.coli (Ec) = assay: Broth microdilution MIC against E.coli (Ec); format: cell-based; settings: for MIC: Escherichia coli, read-out: E. coli + bicarb 6.25 (MIC)
Procedure: as §1, §2, §3

P.aeruginosa (Pa) = assay: Broth microdilution MIC against P.aeruginosa (Pa); format: cell-based; settings: for MIC: Pseudomonas aeruginosa
Procedure: as §1, §2, §3

A.baumannii (Ab) = assay: Broth microdilution MIC against A.baumannii (Ab); format: cell-based; settings: for MIC: Acinetobacter baumannii, read-out: Ab +bicarb 6.25 (MIC)
Procedure: as §1, §2, §3

E.faecalis (Ef) = assay: Broth microdilution MIC against E.faecalis (Ef); format: cell-based; settings: for MIC: Enterococcus faecalis, read-out: Ef +bicarb 6.25 (MIC)
Procedure: as §1, §2, §3

[1] = tested on: E.coli S30 extract (bacterial protein synthesis); assay: E.coli S30 extract: inhibition of bacterial protein synthesis (luciferase); format: biochemical; settings: 37° C. for 1 hour
Procedure: E.coli S30 extract: Inhibition of bacterial protein synthesis was determined using the E.coli S30 Extract System for Circular DNA (Promega catalog #L-2010) and Luciferase Assay Reagent (Promega catalog #E1500) with slight modifications to a published protocol. Fyfe, C., Sutcliffe, J.A. and Grossman, T.H. (2012) “Development and characterization of a Pseudomonas aeruginosa in vitro coupled transcription-translation assay system for evaluation of translation inhibitors” J. Microbiol. Methods 90(3), 256-261.
Compounds were serial diluted in 0.5 mL microcentrifuge tubes by mixing and transferring 50 µL from the highest concentration to 50 µL of water, mixing and transferring 50 µL of this 2-fold dilution to 50 µL of water. This mixing and transferring was repeated so that there are a total of 8 tubes with serial dilutions of compound at 10× the desired screening concentration that are ultimately diluted to 1× by the addition of S30 luciferase synthesis mixture. Serial dilutions of compounds were added (2 µL) to wells in a black round bottom 96-well plate. Water (2 µL) was used as a “no inhibitor” control in 4 wells/plate. No DNA control reaction mixture (20 µL; see below) was used as a control in 4 wells/plate for background luminescence. S30 luciferase synthesis mixture (18 µL; see below) was added to wells with compounds or water mixture and incubated at 37° C. for 1 hour. Reactions were stopped by transferring to 4° C. refrigerator for 5 minutes then 25 µL of luciferase activity mix was added. Luminescence was measured using a BioTek Synergy HTX plate reader. % Inhibition was determined relative to no inhibitor controls.
S30 luciferase synthesis mixture: • 445 µL S30 extract, circular • 712 µL S30 Premix without amino acids • 4.45 µL pBESTluc™ DNA (1 µg/ µL) • 78 µL complete amino acid mixture • 267 µL water
No DNA control: • 20 µL S30 extract, circular • 32 µL S30 Premix without amino acids • 7 µL complete amino acid mixture • 21 µL water

[2] = molecular target: Rabbit Reticulocyte Lysate (eukaryotic protein synthesis); assay: Rabbit Reticulocyte Lysate: inhibition of eukaryotic protein synthesis (luciferase); format: biochemical; settings: 30° C. for 90 minutes, read-out: retic. IC50
Procedure: Inhibition of eukaryotic protein synthesis was determined using the Rabbit Reticulocyte Lysate System, Nuclease-Treated from Promega (catalog #L-4960) with slight modifications to the manufacturer’s protocol. Compounds were serial diluted in 0.5 mL microcentrifuge tubes by mixing and transferring 50 µL from the highest concentration to 50 µL of water, mixing and transferring 50 µL of this 2-fold dilution to 50 µL of water. This mixing and transferring was repeated so that there are a total of 8 tubes with serial dilutions of compound at 10× the desired screening concentration that are ultimately diluted to 1× by the addition of rabbit reticulocyte luciferase synthesis mixture. Serial dilutions of compounds were added (2.5 µL) to wells in a black round bottom 96-well plate. Water (2.5 µL) was used as a “no inhibitor” control in 4 wells/plate. No RNA control reaction mixture (2 µL; see below) was used as a control in 4 wells/plate for background luminescence. Rabbit reticulocyte luciferase synthesis mixture (22.5 µL; see below) was added to wells with compounds or water mixture and incubated at 30° C. for 90 minutes. Luciferase assay reagent (25 µL) was added with luminescence measured using a BioTek Synergy HTX plate reader. % Inhibition was determined relative to no inhibitor controls.
Rabbit reticulocyte luciferase synthesis mixture: • 1,000 µL rabbit reticulocyte lysate • 5.7 µL Luciferase Control RNA (1 µg/ µL) • 26 µL complete amino acid mixture • 395 µL water
No RNA Control • 70 µL rabbit reticulocyte lysate • 2 µL complete amino acid mixture • 28 µL water

[3] = CAMHB supplemented with sodium bicarbonate 6.25 mM
[4] = CAMHB supplemented with sodium bicarbonate 6.25 mM, read-out: Pa +bicarb 6.25 (MIC)
[5] = CAMHB supplemented with sodium bicarbonate 6.25 mM, Hydrochloride Salt
[6] = read-out: Pa +bicarb 6.25 (MIC)

## CC(C)(N)C(=O)N1CCN(C(=O)Nc2ccn(-c3ccc4c(c3)CCC(N[C@H]3CC[C@H](N)C3)C4)c(=O)n2)CC1 (single isomer, unassigned) [Compound 27, Hydrochloride Salt]
S.aureus (Sa); [3]
  MIC: < 8 µg/mL
E.coli (Ec); [3]
  MIC: < 8 µg/mL
P.aeruginosa (Pa); [4]
  MIC: > 32 µg/mL
A.baumannii (Ab); [3]
  MIC: > 32 µg/mL
E.faecalis (Ef); [3]
  MIC: < 8 µg/mL
[1]
  IC50: < 500 nM
[2]
  IC50: ≥ 1000 nM

## CC(C)(N)C(=O)N1CCN(C(=O)Nc2ccn(-c3ccc4c(c3)CCC(N[C@H]3CC[C@H](N)C3)C4)c(=O)n2)CC1 (single isomer, unassigned) [Compound 28, Hydrochloride Salt]
S.aureus (Sa); [3]
  Sa + bicarb 6.25 (MIC): +++ (An MIC value (µg/mL) that is less than 8 µg/mL)
E.coli (Ec); [3]
  E. coli + bicarb 6.25 (MIC): +++ (An MIC value (µg/mL) that is less than 8 µg/mL)
P.aeruginosa (Pa); [3]
  Pa +bicarb 6.25 (MIC): + (An MIC value (µg/mL) that is 32 µg/mL or greater)
A.baumannii (Ab); [3]
  Ab +bicarb 6.25 (MIC): + (An MIC value (µg/mL) that is 32 µg/mL or greater)
E.faecalis (Ef); [5]
  Ef +bicarb 6.25 (MIC): ++ (An MIC value (µg/mL) that is 8 µg/mL or greater and less than 32 µg/mL)
[1]
  IC50: < 500 nM
[2]
  IC50: ≥ 1000 nM

## CC(C)(N)C(=O)N1CCN(C(=O)Nc2ccn(-c3ccc4c(c3)CCC(N[C@H]3CC[C@@H](N)C3)C4)c(=O)n2)CC1 (single isomer, unassigned) [Compound 33, Hydrochloride Salt]
S.aureus (Sa); [3]
  MIC: 8 to 32 µg/mL
E.coli (Ec); [3]
  MIC: < 8 µg/mL
P.aeruginosa (Pa); [4]
  MIC: > 32 µg/mL
A.baumannii (Ab); [3]
  MIC: > 32 µg/mL
E.faecalis (Ef); [3]
  MIC: > 32 µg/mL
[1]
  IC50: < 500 nM
[2]
  IC50: ≥ 1000 nM

## CC(C)(N)C(=O)N1CCN(C(=O)Nc2ccn(-c3ccc4c(c3)CCC(N[C@H]3CC[C@@H](N)C3)C4)c(=O)n2)CC1 (single isomer, unassigned) [Compound 34, Hydrochloride Salt]
S.aureus (Sa); [5]
  Sa + bicarb 6.25 (MIC): +++ (An MIC value (µg/mL) that is less than 8 µg/mL)
E.coli (Ec); [3]
  E. coli + bicarb 6.25 (MIC): +++ (An MIC value (µg/mL) that is less than 8 µg/mL)
P.aeruginosa (Pa); [3]
  Pa +bicarb 6.25 (MIC): + (An MIC value (µg/mL) that is 32 µg/mL or greater)
A.baumannii (Ab); [3]
  Ab +bicarb 6.25 (MIC): + (An MIC value (µg/mL) that is 32 µg/mL or greater)
E.faecalis (Ef); [3]
  Ef +bicarb 6.25 (MIC): + (An MIC value (µg/mL) that is 32 µg/mL or greater)
[1]
  IC50: < 500 nM
[2]
  IC50: ≥ 1000 nM

## CC(C)(N)C(=O)N1CCN(C(=O)Nc2ccn(-c3ccc4c(c3)CCC(N3C[C@@H]5[C@@H](N)[C@@H]5C3)C4)c(=O)n2)CC1 (stereo partly shown) [Compound 1]
[1]
  IC50: ≥ 1000 nM
[2]
  IC50: ≥ 1000 nM

## CC(C)(N)C(=O)N1CCN(C(=O)Nc2ccn(-c3ccc4c(c3)CCC(N3CCC(N)CC3)C4)c(=O)n2)CC1 (stereo not shown) [Compound 2]
E.coli (Ec); [3]
  MIC: < 8 µg/mL
[1]
  IC50: < 500 nM
[2]
  IC50: ≥ 1000 nM

## CC(C)(N)C(=O)N1CCN(C(=O)Nc2ccn(-c3ccc4c(c3)CCC(N3C[C@@H]5[C@@H](CN)[C@@H]5C3)C4)c(=O)n2)CC1 (stereo partly shown) [Compound 3]
[1]
  IC50: < 500 nM
[2]
  IC50: ≥ 1000 nM

## CC(C)(N)C(=O)N1CCN(C(=O)Nc2ccn(-c3ccc4c(c3)CCC(N3CC[C@@H](CN)C3)C4)c(=O)n2)CC1 (stereo partly shown) [Compound 4]
P.aeruginosa (Pa); CAMHB supplemented with sodium bicarbonate 25 mM, read-out: Pa +bicarb 25 (MIC)
  MIC: 8 to 32 µg/mL (≈ 14.9 to 59.6 µM)
[1]
  IC50: < 500 nM
[2]
  IC50: ≥ 1000 nM

## CC(C)(N)C(=O)N1CCN(C(=O)Nc2ccn(-c3ccc4c(c3)CCC(N3CC[C@H](CN)C3)C4)c(=O)n2)CC1 (stereo partly shown) [Compound 5]
[1]
  IC50: < 500 nM
[2]
  IC50: ≥ 1000 nM

## C[C@](N)(CO)C(=O)N1CCN(C(=O)Nc2ccn(-c3ccc4c(c3)CCC(N[C@H]3CC[C@H](N)C3)C4)c(=O)n2)CC1 (stereo partly shown) [Compound 24, Hydrochloride Salt]
S.aureus (Sa)
  MIC: > 32 µg/mL
E.coli (Ec)
  MIC: < 8 µg/mL
P.aeruginosa (Pa); [6]
  MIC: > 32 µg/mL
A.baumannii (Ab)
  MIC: > 32 µg/mL
E.faecalis (Ef)
  MIC: > 32 µg/mL

## CC(C)(N)C(=O)N1CCN(C(=O)Nc2ccn(-c3ccc4c(c3)CCC(N[C@H]3C[C@H](CN)C3)C4)c(=O)n2)CC1 (stereo partly shown) [Compound 41, Hydrochloride Salt]
S.aureus (Sa)
  MIC: 8 to 32 µg/mL
E.coli (Ec)
  MIC: < 8 µg/mL
P.aeruginosa (Pa); [6]
  MIC: > 32 µg/mL
A.baumannii (Ab)
  MIC: > 32 µg/mL
E.faecalis (Ef)
  MIC: > 32 µg/mL

## CC(C)(N)C(=O)N1CCN(C(=O)Nc2ccn(-c3ccc4c(c3)CCC(N[C@H]3C[C@@H](CN)C3)C4)c(=O)n2)CC1 (stereo partly shown) [Compound 44, Hydrochloride Salt]
S.aureus (Sa)
  MIC: > 32 µg/mL
E.coli (Ec)
  MIC: 8 to 32 µg/mL
P.aeruginosa (Pa); [6]
  MIC: > 32 µg/mL
A.baumannii (Ab)
  MIC: > 32 µg/mL
E.faecalis (Ef)
  MIC: > 32 µg/mL
